System: G-401 tumor spheroids, viability % test/control
Assay: Anticancer human tumor G-401 cell line growth inhibition;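 also: spheroids exposed to compound for 7 days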;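 as to viability, T/C: 100% = DMSO vehicle-treated spheroids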
Conditions: spheroids with HUVEC and MSC; for IC50: curve of first compound; for viability, T/C: stronger effect = lower value
Outline: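 Complex spheroids of malignant cells with endothelial cells and mesenchymal stem cells; agents alone or combined, from near clinical Cmax (or 10 microM if unknown) down in half-log steps, 0.25% DMSO final.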

[1] = second compound 30 pM, first compound 0.0316 µM
[2] = second compound 30 pM, first compound 0.1 µM
[3] = second compound 30 pM, first compound 0.316 µM
[4] = second compound 30 pM, first compound 1 µM
[5] = second compound 30 pM, first compound 3.16 µM
[6] = second compound 30 pM, first compound 10 µM
[7] = second compound 94.9 pM, first compound 0.0316 µM
[8] = second compound 94.9 pM, first compound 0.1 µM
[9] = second compound 94.9 pM, first compound 0.316 µM
[10] = second compound 94.9 pM, first compound 1 µM
[11] = second compound 94.9 pM, first compound 3.16 µM
[12] = second compound 94.9 pM, first compound 10 µM
[13] = second compound 0.0003 µM, first compound 0.0316 µM
[14] = second compound 0.0003 µM, first compound 0.1 µM
[15] = second compound 0.0003 µM, first compound 0.316 µM
[16] = second compound 0.0003 µM, first compound 1 µM
[17] = second compound 0.0003 µM, first compound 3.16 µM
[18] = second compound 0.0003 µM, first compound 10 µM
[19] = second compound 0.000949 µM, first compound 0.0316 µM
[20] = second compound 0.000949 µM, first compound 0.1 µM
[21] = second compound 0.000949 µM, first compound 0.316 µM
[22] = second compound 0.000949 µM, first compound 1 µM
[23] = second compound 0.000949 µM, first compound 3.16 µM
[24] = second compound 0.000949 µM, first compound 10 µM
[25] = second compound 0.003 µM, first compound 0.0316 µM
[26] = second compound 0.003 µM, first compound 0.1 µM
[27] = second compound 0.003 µM, first compound 0.316 µM
[28] = second compound 0.003 µM, first compound 1 µM
[29] = second compound 0.003 µM, first compound 3.16 µM
[30] = second compound 0.003 µM, first compound 10 µM

## CC(C)n1c(=O)n(C)c2cnc3cc(F)c(-c4ccc(OCCCN5CCCCC5)nc4)cc3c21 + COc1cc2c(cc1O)CCNC21CSC2c3c(OC(C)=O)c(C)c4c(c3C(COC1=O)N1C(O)C3Cc5cc(C)c(OC)c(O)c5C(C21)N3C)OCO4
Second compound 30 pM
  IC50: < 31.6 nM
Second compound 94.9 pM
  IC50: < 31.6 nM
Second compound 0.0003 µM
  IC50: < 31.6 nM
Second compound 0.000949 µM
  IC50: < 31.6 nM
Second compound 0.003 µM
  IC50: < 31.6 nM
[1]
  viability, T/C: 43.6%
[2]
  viability, T/C: 35.7%
[3]
  viability, T/C: 35%
[4]
  viability, T/C: 46.2%
[5]
  viability, T/C: 36.9%
[6]
  viability, T/C: 19%
[7]
  viability, T/C: 19.1%
[8]
  viability, T/C: 17.3%
[9]
  viability, T/C: 18.1%
[10]
  viability, T/C: 21.6%
[11]
  viability, T/C: 23.9%
[12]
  viability, T/C: 23%
[13]
  viability, T/C: 15.6%
[14]
  viability, T/C: 12.8%
[15]
  viability, T/C: 16.4%
[16]
  viability, T/C: 19.7%
[17]
  viability, T/C: 18.4%
[18]
  viability, T/C: 17.9%
[19]
  viability, T/C: 7.44%
[20]
  viability, T/C: 7.47%
[21]
  viability, T/C: 7.71%
[22]
  viability, T/C: 11.5%
[23]
  viability, T/C: 12.2%
[24]
  viability, T/C: 10.6%
[25]
  viability, T/C: 0.13%
[26]
  viability, T/C: 0.16%
[27]
  viability, T/C: 0.15%
[28]
  viability, T/C: 0.36%
[29]
  viability, T/C: 0.4%
[30]
  viability, T/C: 0.44%

## CC1COCCN1c1cc(-c2ccnn2C)c2ccnc(-c3ccn[nH]3)c2n1 (stereo not given) + COc1cc2c(cc1O)CCNC21CSC2c3c(OC(C)=O)c(C)c4c(c3C(COC1=O)N1C(O)C3Cc5cc(C)c(OC)c(O)c5C(C21)N3C)OCO4
Second compound 30 pM
  IC50: 39.6 nM
Second compound 94.9 pM
  IC50: < 31.6 nM
Second compound 0.0003 µM
  IC50: < 31.6 nM
Second compound 0.000949 µM
  IC50: < 31.6 nM
Second compound 0.003 µM
  IC50: < 31.6 nM
[1]
  viability, T/C: 57.3%
[2]
  viability, T/C: 22.1%
[3]
  viability, T/C: 12.5%
[4]
  viability, T/C: 12.3%
[5]
  viability, T/C: 14.6%
[6]
  viability, T/C: 16.3%
[7]
  viability, T/C: 32%
[8]
  viability, T/C: 16.9%
[9]
  viability, T/C: 10.8%
[10]
  viability, T/C: 11.2%
[11]
  viability, T/C: 12.9%
[12]
  viability, T/C: 15.8%
[13]
  viability, T/C: 13.1%
[14]
  viability, T/C: 10.8%
[15]
  viability, T/C: 9.87%
[16]
  viability, T/C: 9.44%
[17]
  viability, T/C: 11%
[18]
  viability, T/C: 14%
[19]
  viability, T/C: 7.87%
[20]
  viability, T/C: 7.07%
[21]
  viability, T/C: 6.97%
[22]
  viability, T/C: 4.82%
[23]
  viability, T/C: 3.79%
[24]
  viability, T/C: 1.07%
[25]
  viability, T/C: 0.15%
[26]
  viability, T/C: 0.14%
[27]
  viability, T/C: 0.12%
[28]
  viability, T/C: 0.11%
[29]
  viability, T/C: 0.11%
[30]
  viability, T/C: 0.17%

## COc1cc(C)[nH]c(=O)c1CN1CCc2c(Cl)cc(C(OC)C3COC3)c(Cl)c2C1=O (stereo not given) + COc1cc2c(cc1O)CCNC21CSC2c3c(OC(C)=O)c(C)c4c(c3C(COC1=O)N1C(O)C3Cc5cc(C)c(OC)c(O)c5C(C21)N3C)OCO4
Second compound 30 pM
  IC50: 106 nM
Second compound 94.9 pM
  IC50: 87 nM
Second compound 0.0003 µM
  IC50: < 31.6 nM
Second compound 0.000949 µM
  IC50: < 31.6 nM
Second compound 0.003 µM
  IC50: < 31.6 nM
[1]
  viability, T/C: 83.1%
[2]
  viability, T/C: 50.9%
[3]
  viability, T/C: 33.9%
[4]
  viability, T/C: 28.1%
[5]
  viability, T/C: 26.9%
[6]
  viability, T/C: 26.1%
[7]
  viability, T/C: 74.1%
[8]
  viability, T/C: 44.6%
[9]
  viability, T/C: 36.1%
[10]
  viability, T/C: 27.3%
[11]
  viability, T/C: 22.7%
[12]
  viability, T/C: 22.8%
[13]
  viability, T/C: 33.1%
[14]
  viability, T/C: 30.2%
[15]
  viability, T/C: 23%
[16]
  viability, T/C: 20.4%
[17]
  viability, T/C: 18.4%
[18]
  viability, T/C: 18.1%
[19]
  viability, T/C: 4.72%
[20]
  viability, T/C: 5.11%
[21]
  viability, T/C: 3.78%
[22]
  viability, T/C: 4%
[23]
  viability, T/C: 5.07%
[24]
  viability, T/C: 3.13%
[25]
  viability, T/C: 0.12%
[26]
  viability, T/C: 0.12%
[27]
  viability, T/C: 0.11%
[28]
  viability, T/C: 0.11%
[29]
  viability, T/C: 0.11%
[30]
  viability, T/C: 0.18%

## COc1ccc([C@@H](O)c2cc(-c3ncnc4cc(N5CCOCC5)ccc34)c(F)cc2Cl)nn1 + COc1cc2c(cc1O)CCNC21CSC2c3c(OC(C)=O)c(C)c4c(c3C(COC1=O)N1C(O)C3Cc5cc(C)c(OC)c(O)c5C(C21)N3C)OCO4
Second compound 30 pM
  IC50: 1000 nM
Second compound 94.9 pM
  IC50: 493 nM
Second compound 0.0003 µM
  IC50: < 31.6 nM
Second compound 0.000949 µM
  IC50: < 31.6 nM
Second compound 0.003 µM
  IC50: < 31.6 nM
[1]
  viability, T/C: 93.1%
[2]
  viability, T/C: 99.2%
[3]
  viability, T/C: 87.4%
[4]
  viability, T/C: 50%
[5]
  viability, T/C: 16.5%
[6]
  viability, T/C: 9.53%
[7]
  viability, T/C: 83.8%
[8]
  viability, T/C: 83.1%
[9]
  viability, T/C: 63.6%
[10]
  viability, T/C: 27.7%
[11]
  viability, T/C: 9.96%
[12]
  viability, T/C: 5.51%
[13]
  viability, T/C: 40%
[14]
  viability, T/C: 29.8%
[15]
  viability, T/C: 18.6%
[16]
  viability, T/C: 8.98%
[17]
  viability, T/C: 3.1%
[18]
  viability, T/C: 0.75%
[19]
  viability, T/C: 5.15%
[20]
  viability, T/C: 5.57%
[21]
  viability, T/C: 2.21%
[22]
  viability, T/C: 0.51%
[23]
  viability, T/C: 0.05%
[24]
  viability, T/C: 0.16%
[25]
  viability, T/C: 0.22%
[26]
  viability, T/C: 0.25%
[27]
  viability, T/C: 0.21%
[28]
  viability, T/C: 0.21%
[29]
  viability, T/C: 0.16%
[30]
  viability, T/C: 0.25%

## Cc1cc(C)c(CNC(=O)c2cc(-c3ccc(CN4CCOCC4)cc3)cc3c2cnn3C2CCCC2)c(=O)[nH]1 + COc1cc2c(cc1O)CCNC21CSC2c3c(OC(C)=O)c(C)c4c(c3C(COC1=O)N1C(O)C3Cc5cc(C)c(OC)c(O)c5C(C21)N3C)OCO4
Second compound 30 pM
  IC50: > 10000 nM
Second compound 94.9 pM
  IC50: 7070 nM
Second compound 0.0003 µM
  IC50: < 31.6 nM
Second compound 0.000949 µM
  IC50: < 31.6 nM
Second compound 0.003 µM
  IC50: < 31.6 nM
[1]
  viability, T/C: 107%
[2]
  viability, T/C: 109%
[3]
  viability, T/C: 111%
[4]
  viability, T/C: 119%
[5]
  viability, T/C: 97.7%
[6]
  viability, T/C: 53.9%
[7]
  viability, T/C: 93.3%
[8]
  viability, T/C: 110%
[9]
  viability, T/C: 106%
[10]
  viability, T/C: 107%
[11]
  viability, T/C: 81%
[12]
  viability, T/C: 36.6%
[13]
  viability, T/C: 43.3%
[14]
  viability, T/C: 46.5%
[15]
  viability, T/C: 37.9%
[16]
  viability, T/C: 30%
[17]
  viability, T/C: 25.2%
[18]
  viability, T/C: 17.4%
[19]
  viability, T/C: 9.71%
[20]
  viability, T/C: 9.04%
[21]
  viability, T/C: 6.87%
[22]
  viability, T/C: 6.92%
[23]
  viability, T/C: 6.27%
[24]
  viability, T/C: 4.18%
[25]
  viability, T/C: 11.6%
[26]
  viability, T/C: 0.13%
[27]
  viability, T/C: 0.27%
[28]
  viability, T/C: 0.15%
[29]
  viability, T/C: 0.54%
[30]
  viability, T/C: 0.2%

## [2H]c1nc(C)nc([2H])c1-c1cc(NC[C@@H](C)c2cccc3c(C(=O)NC)ccnc23)ncn1 + COc1cc2c(cc1O)CCNC21CSC2c3c(OC(C)=O)c(C)c4c(c3C(COC1=O)N1C(O)C3Cc5cc(C)c(OC)c(O)c5C(C21)N3C)OCO4
Second compound 30 pM
  IC50: > 10000 nM
Second compound 94.9 pM
  IC50: > 10000 nM
Second compound 0.0003 µM
  IC50: < 31.6 nM
Second compound 0.000949 µM
  IC50: < 31.6 nM
Second compound 0.003 µM
  IC50: < 31.6 nM
[1]
  viability, T/C: 103%
[2]
  viability, T/C: 103%
[3]
  viability, T/C: 106%
[4]
  viability, T/C: 105%
[5]
  viability, T/C: 98.6%
[6]
  viability, T/C: 106%
[7]
  viability, T/C: 88.6%
[8]
  viability, T/C: 87.5%
[9]
  viability, T/C: 93%
[10]
  viability, T/C: 93.1%
[11]
  viability, T/C: 93.9%
[12]
  viability, T/C: 91.4%
[13]
  viability, T/C: 36.1%
[14]
  viability, T/C: 39.9%
[15]
  viability, T/C: 40%
[16]
  viability, T/C: 42.6%
[17]
  viability, T/C: 31.8%
[18]
  viability, T/C: 37.4%
[19]
  viability, T/C: 7.05%
[20]
  viability, T/C: 5.74%
[21]
  viability, T/C: 8.4%
[22]
  viability, T/C: 8.02%
[23]
  viability, T/C: 6.93%
[24]
  viability, T/C: 3.48%
[25]
  viability, T/C: 0.16%
[26]
  viability, T/C: 0.17%
[27]
  viability, T/C: 0.14%
[28]
  viability, T/C: 0.13%
[29]
  viability, T/C: 0.14%
[30]
  viability, T/C: 0.22%

From PubChem BioAssay AID1845203 (Molecular Pharmacology Branch, DTP, NCI, 2023)
